Test results reported in ChEMBL document CHEMBL4028862 (J Med Chem, 2017).
Activity calls are given as the source filed them. The calls are words filed in the database; no cut-off is given here.

Columns and labels:
[1] = biological target: T1, Acid-sensing ion channel 3 (Rattus norvegicus, UniProt O35240); assay: Inhibition of rat ASIC3 receptor expressed in xenopus lavies oocytes assessed as inhibition of pH 6.4-gated currents by two electrode voltage clamp; assay type: cell-based
T1 sequence (O35240 whole entry): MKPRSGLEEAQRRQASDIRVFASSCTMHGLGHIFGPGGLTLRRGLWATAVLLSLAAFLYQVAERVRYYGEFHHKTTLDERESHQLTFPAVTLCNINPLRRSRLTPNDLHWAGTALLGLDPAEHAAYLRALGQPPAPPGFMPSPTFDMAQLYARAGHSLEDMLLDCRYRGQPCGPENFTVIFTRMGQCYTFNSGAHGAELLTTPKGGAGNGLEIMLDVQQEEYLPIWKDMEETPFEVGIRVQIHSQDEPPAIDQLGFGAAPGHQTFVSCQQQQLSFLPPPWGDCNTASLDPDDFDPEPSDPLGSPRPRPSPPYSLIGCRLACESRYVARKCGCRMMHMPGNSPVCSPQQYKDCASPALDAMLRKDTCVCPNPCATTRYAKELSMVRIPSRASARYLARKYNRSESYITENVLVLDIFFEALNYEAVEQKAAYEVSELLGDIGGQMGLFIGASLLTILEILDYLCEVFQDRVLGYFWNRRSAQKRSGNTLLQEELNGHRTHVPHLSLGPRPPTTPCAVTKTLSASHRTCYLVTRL

[2] = biological target: T2, Acid-sensing ion channel 1 (Rattus norvegicus, UniProt P55926); assay: Inhibition of rat ASIC1a receptor expressed in xenopus lavies oocytes assessed as inhibition of pH 6.7-gated currents by two electrode voltage clamp; assay type: cell-based
T2 sequence (P55926 whole entry): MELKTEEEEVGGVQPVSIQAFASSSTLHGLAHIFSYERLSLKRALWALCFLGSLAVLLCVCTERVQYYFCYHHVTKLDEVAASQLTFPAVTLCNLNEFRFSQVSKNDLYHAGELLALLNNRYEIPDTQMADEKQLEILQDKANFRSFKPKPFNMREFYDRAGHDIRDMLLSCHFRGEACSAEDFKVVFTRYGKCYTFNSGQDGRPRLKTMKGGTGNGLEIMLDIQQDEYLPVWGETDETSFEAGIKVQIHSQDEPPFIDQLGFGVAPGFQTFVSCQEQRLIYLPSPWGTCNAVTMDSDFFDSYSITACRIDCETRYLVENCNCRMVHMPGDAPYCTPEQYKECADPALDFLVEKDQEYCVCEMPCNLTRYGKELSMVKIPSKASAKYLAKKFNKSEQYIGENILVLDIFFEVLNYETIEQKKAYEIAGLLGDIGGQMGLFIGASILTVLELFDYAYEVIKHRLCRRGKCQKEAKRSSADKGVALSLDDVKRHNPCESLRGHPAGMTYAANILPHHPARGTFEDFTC

[3] = biological target: T3, Acid-sensing ion channel 1 (Rattus norvegicus) (UniProt P55926); assay: Inhibition of rat ASIC1a receptor expressed in xenopus lavies oocytes at 0.03 to 3 mM at greater than pH 5 by two electrode voltage clamp; assay type: cell-based
T3 sequence (whole entry): T2 sequence (P55926 whole entry)

[4] = biological target: T3, Acid-sensing ion channel 1 (Rattus norvegicus); assay: Inhibition of rat ASIC1a receptor expressed in xenopus lavies oocytes at 0.1 to 3 mM at greater than pH 5 by two electrode voltage clamp; assay type: cell-based
[5] = Solubility of the compound in buffer at less than pH 5; assay type: physicochemical
cells = details: Rattus norvegicus
[6] = Solubility of the compound in buffer at pH 4; assay type: physicochemical
[7] = biological target: T3, Acid-sensing ion channel 1 (Rattus norvegicus)

Row | Structure (SMILES) | IC50 [1] | IC50 [2] | also measured
1 | Cc1ccc(C(C)C(=O)O)cc1 (centres undefined) | 708 µM | > 10000 µM | 
2 | CC(C)Cc1ccc(C(F)C(=O)O)cc1 (centres undefined) | 891 µM | 955 µM | 
3 | CC(C)Cc1ccc(C(=O)O)cc1 | 302 µM | 417 µM | inhibition [3]: Active
4 | CC(C)Cc1ccc(C(C)[N+](=O)[O-])cc1 (centres undefined) |  |  | inhibition [4]: inactive
5 | CC(C(=O)O)c1ccc(-c2ccccc2)c(F)c1 (racemic) [FLURBIPROFEN] | 229 µM | 170 µM | 
6 | CC(C)Cc1ccc(C(C)C(=O)O)cc1 (racemic) [IBUPROFEN] |  |  | solubility [5]: Insoluble; IC50 (cells): 3000 µM; IC50 (cells; read-out: pIC50 (converted)): 3160 µM; solubility [6]: Insoluble; pH50 [7]: 6.6
7 | CCC(C(=O)O)c1ccc(CC(C)C)cc1 (centres undefined) [BUTIBUFEN] | 288 µM | 182 µM | 
8 | CC(C)Cc1ccc(CC(=O)O)cc1 [IBUFENAC] | 417 µM | 1020 µM | 
